Measurements as given in patent publication US8881823B2, “Environmentally friendly low temperature breaker systems and related methods” (Halliburton Energy Services, Inc., priority 2011, dated 2014).

Assays:
[1] = Active toxicity test of GLDA on Daphnia magna (OECD 202); assay type: in vivo; details: in vivo, OECD 202, 48-h
Method: (§1) GLDA was also tested for its eco-toxicological effect on various environmental subjects. In particular, the active toxicity of GLDA was measured on various organisms following OECD 201, 202 and 203 protocols.

Daphnia magna = experiment: as above; assay type: in vivo; details: OECD 202, 48-h
Method: as §1

[2] = Calcite dissolving capacity of breaker systems; assay type: physicochemical; details: 2.5 g BARACARB 5 in 50 mL test fluid, one hour
Method: The calcite dissolving capacity of each breaker system was determined in the following manner. A known amount of a technical grade calcium carbonate (commercially available from Halliburton under the tradename “BARACARB 5”) was dried in an oven for 2 hours. […] The solution was subsequently filtered with a 1 micron fiber glass filter paper.

[3] = Miscibility and pH of breaker systems in fresh water; assay type: physicochemical; details: breaker system in fresh water, 150° F. for 16 hours
Method: Several chelating agents and acids (breaker systems) were tested for their calcium carbonate dissolving capacity and miscibility in fresh water. Tests of the breaker systems were performed by adding a known volume of breaker system to a volume of brine needed to fill 100 ml in a jar. The jars were then sealed and swirled to mix the components. Samples containing 5%, 10%, or 20% v/v of chelating agents and acids were prepared. The jars were then placed in a static oven at 150° F. for 16 hours. Afterwards, miscibility of the components was observed and the pH of each mixture was tabulated.

[4] = Active toxicity test of GLDA on Rainbow trout (OECD 203); assay type: in vivo, Oncorhynchus mykiss; details: rainbow trout (Oncorhynchus mykiss), in vivo, OECD 203, 96-h
Method: as §1

[5] = test system: Rainbow trout (Oncorhynchus mykiss); experiment: as above; assay type: in vivo; details: OECD 203, 96-h
Method: as §1

[6] = Dissolution and miscibility tests in sodium bromide brines; assay type: physicochemical; details: for % Complexed or Dissolved / Final Weight of BARACARB 5: 2.5 g BARACARB 5, 150° F., 16 hours
Method: Dissolution and miscibility tests were also performed on 20% GLDA in sodium bromide brines. 20% GLDA was mixed in various concentration of NaBr in order to evaluate the effect of brine concentration on the dissolving capacity of GLDA. Without being limited by theory, it is believed that reducing the amount of available free water in the brine reduced the dissociation rate of the acid functionalities on the breaker, which in turn reduced the amount of complexed calcium ions. These tests were performed in 20% v/v breaker systems in 10.2 lb/gal KCl/NaBr brine or 12.5 lb/gal NaBr brine. In each case, 2.5 g of BARACARB 5 calcium carbonate was added to the breaker systems at 150° F. for 16 hours. For comparison, a mineral acid breaker system was also tested.

[7] = Chemical oxygen demand (COD) test; assay type: physicochemical
Text: Table 2 compares the biodegradability of GLDA and EDTA and summarizes chemical oxygen demand (COD) tests which indirectly measures the amount of organic compounds in water.

[8] = Multiple step return permeability test; details: 20% GLDA solution in 11 lb/gal sodium bromide, 16 hours soak, approximately 110° F.
Text: To simulate the performance of a breaker solution in potential downhole applications, a 20% GLDA solution in 11 lb/gal sodium bromide was used in a multiple step return permeability test on a low permeability Berea Sandstone core plug. The following procedure was used.
A 1.0″ diameter core plug was cut out of a Berea Sandstone block having low permeability (about 20% porosity). The core plug was inserted into a containment sleeve of a manual return permeameter (MRP). The pressure chamber was sealed and the temperature was maintained at approximately 110° F., while the confining pressure was at approximately 2,500 psi. Once the temperature and overburden pressure stabilized, isoparaffin solvent (“SOLTROL® 170” commercially available from Chevron Phillips Chemical Company) filtered to 0.45 micron, was produced through the core at 4 ml/min against approximately 200 psi back-pressure. […] The initial and final permeability values were calculated using Darcy's Law for linear flow: […]
Treatment simulation in the lab involved three separate steps, each step potentially causing formation damage or a reduction in permeability. […] Once the displacement of the drill-in fluid was complete, the damage caused by the previous three injection steps was evaluated by pumping of SOLTROL® 170 through the core until a constant permeability was obtained using the same procedure used for the initial permeability. […]

[9] = parameters: species or system Alga; details: alga, in vivo
Method: as §1

Alga = details: Alga, in vivo, 72 h
Method: as §1

[10] = Biodegradability, OECD 301 D Closed Bottle Test
Text: The same protocol was used to test EDTA (“DISSOLVINE AM3-40” available from AkzoNobel Corporate) and sodium acetate.

[11] = 20% v/v breaker in 10.2 lb/gal KCl/NaBr
[12] = 20% v/v breaker in 12.5 lb/gal NaBr

With `O=C(O)CC[C@@H](C(=O)O)N(CC(=O)O)CC(=O)O` [GLDA, L-glutamic acid N,N-diacetic acid] as the compound, how does the EC50 at 48 h [1] read?
Its EC50 at 48 h is > 100 µg/mL.

And the “48-h NOEC” value (Daphnia magna)?
Its value is “NOEC ≧ 100 mg/l”.

What about the “% Carbonate Complexed or Dissolved” value [2] of the same compound?
Its value is 19.6%.

What about the “Final Weight of BARACARB 5, g” value [2] of the same compound?
The value was 2.01 g.

And the pH [3]?
The pH was >12.

What about the LC50 at 96 h [4] of the same compound?
The LC50 at 96 h was > 100 µg/mL.

And the “96-h NOEC” value [5]?
Its value is “NOEC ≧ 100 mg/l”.

And the “% Complexed or Dissolved” value [6, 11]?
The value was 49%.

And the Final Weight of BARACARB 5 [6, 11]?
The Final Weight of BARACARB 5 was 1.27 g.

What about the “% Complexed or Dissolved” value [6, 12] of the same compound?
Its value is 29%.

And the Final Weight of BARACARB 5 [6, 12]?
Its Final Weight of BARACARB 5 is 1.78 g.

What about the “carbonate dissolved (FIG. 2)” value ([6]; higher brine concentration) of the same compound?
Its value is “less than 45%”.

And the “carbonate dissolved (FIG. 2)” value ([6]; lower brine concentration)?
The value was “more than 80%”.

And the COD [7]?
The COD was 345 to 385 mg/g.

What about the “return permeability after the breaker cleanup, % of the initial permeability” value [8] of the same compound?
Its value is 94%.

What about the EC50 at 72 h [9] of the same compound?
Its EC50 at 72 h is > 100 µg/mL.

What about the “72-h NOEC” value (Alga) of the same compound?
Its value is “NOEC ≧ 100 mg/l”.

And the Biodegradability [10]?
Its Biodegradability is “Easy”.

What about the “biodegradability (in words)” value [10] of the same compound?
The value was “readily biodegradable”.
